# Data reported in patent publication EP4368729A1, “MOLECULES TARGETING RIBOSOMAL PROTEIN RPL40 FOR USE IN COSMETICS AND THE TREATMENT OF DISEASES OF THE SKIN” (Merck Patent GmbH, priority 2022, dated 2024).
# Entries after “also recorded” stand apart in the source; their conditions may differ.
# Target: T1, rpL40 (Saccharomyces cerevisiae, UniProt P0CH08)
# T1 construct: endogenous in cells; host or cells: S. cerevisiae diploid strain (BY2n / BY4743 background) co-transformed with the TE-FF and REN reporter plasmids
# T1 sequence (P0CH08 77-128): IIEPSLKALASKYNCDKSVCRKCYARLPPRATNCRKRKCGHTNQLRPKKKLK
# Test: Biological activity of prospective L40 binders: tropoelastin-firefly / renilla dual luciferase reporter in yeast cells
# Format: cell-based
# Settings: treatment at 1nM, 10nM, 100nm, 1µM, 10µM and 100µM; replicates n=3; Figs. 3-5
# Procedure: The present invention will now be described further in the following examples with reference to the accompanying Figures, nevertheless, without being limited thereto. […] The wildtype (abbreviated WT) is shown as a red dot. […] Replicates n=3, and treatment was made at 1nM, 10nM, 100nm, 1µM, 10µM, and 100µM concentration of compounds.
# Wildtype (BY2n) and variant ribosomal protein yeast strains (Kelly DE, Lamb DC, Kelly SL. Genome-wide generation of yeast gene deletion strains. Comp Funct Genomics. 2001;2(4):236-42. doi: 10.1002/cfg.95. PMID: 18628917; PMCID: PMC2447215), that were co-transformed with the tropoelastin-firefly and the renilla protein expression reporter plasmids were used for overnight cultures using single colony inoculation. Cell density (OD600) was determined using a Hitachi U_3000 spectrophotometer. […]
# Dual luciferase assay readouts were performed with the GloMax Multi Detection System using the Dual-Luciferase® Reporter Assay System (Promega). For each dual luciferase luminescence measurement, 50 µl of a cell culture (5×10^5 cells) were transferred into a 96-well plate and lysed through addition of 20 µl passive lysis buffer (Promega) for one minute, following the instruction of the supplier. FF luminescence readout was detected upon addition of 50 µl of LAR II substrate, and then REN luminescence signal was recorded after the addition of 50 µl Stop & Glo® substrate. […]
smiles,measurement,value
CCCC(Oc1cccc(C(=N)N)c1)C(=O)Nc1ccc2c(c1)S(=O)(=O)c1ccccc1-2 (stereo not shown) [Compound 22],translation in yeast cells,decreasing translation; also recorded: lowered translation
